From ChEMBL document CHEMBL3044773, “Adulticidal activity of phthalides identified in Cnidium officinale rhizome to B- and Q-biotypes of Bemisia tabaci” (2011)
Values after ≈ are worked out from the molar mass of the structure shown.

What was measured:
Assay type in all cases: functional
Bemisia tabaci [1] = assay: Adulticidal activity against female Bemisia tabaci biotype B (sweet potato whitefly) in cucumber leaves assessed as residual contact toxicity treated for 30 secs before adult insect infestation measured after 24 hr by leaf dip bioassay; conditions: foliar
Bemisia tabaci [2] = assay: Adulticidal activity against female Bemisia tabaci biotype Q (sweet potato whitefly) in cucumber leaves assessed as residual contact toxicity treated for 30 secs before adult insect infestation measured after 24 hr by leaf dip bioassay; conditions: foliar
Bemisia tabaci [3] = assay: Biotype susceptibility ratio, ratio of LC50 for female adult Bemisia tabaci biotype Q (sweet potato whitefly) to LC50 for female adult Bemisia tabaci biotype B

Compound `CC(C)(C)c1ccc(CSc2cnn(C(C)(C)C)c(=O)c2Cl)cc1` [PYRIDABEN] has an LC50 (Bemisia tabaci [1]) of 129 µg/mL (≈ 354 µM), an LC50 (Bemisia tabaci [2]) of 211 µg/mL (≈ 578 µM) and a RatioLC50 (Bemisia tabaci [3]) of 1.6.
Compound `CCN(CC)c1nc(C)cc(OP(=S)(OC)OC)n1` [PIRIMIPHOS METHYL] has an LC50 (Bemisia tabaci [1]) of 188 µg/mL (≈ 616 µM), an LC50 (Bemisia tabaci [2]) of 235 µg/mL (≈ 770 µM) and a RatioLC50 (Bemisia tabaci [3]) of 1.3.
`C/C(=N\C#N)N(C)Cc1ccc(Cl)nc1` [ACETAMIPRID] showed an LC50 (Bemisia tabaci [1]) of 11.6 µg/mL (≈ 52.1 µM), an LC50 (Bemisia tabaci [2]) of 364 µg/mL (≈ 1640 µM) and a RatioLC50 (Bemisia tabaci [3]) of 31.4.
For `CCCC[C@@H]1OC(=O)c2ccccc21` [(3S)-BUTYLPHTHALIDE], the LC50 (Bemisia tabaci [1]) was 339 µg/mL (≈ 1780 µM), the LC50 (Bemisia tabaci [2]) was 338 µg/mL (≈ 1780 µM) and the RatioLC50 (Bemisia tabaci [3]) was 1.
`CCC/C=C1\OC(=O)C2=C1CCC=C2` [LIGUSTILIDE] showed an LC50 (Bemisia tabaci [1]) of 268 µg/mL (≈ 1410 µM), an LC50 (Bemisia tabaci [2]) of 254 µg/mL (≈ 1340 µM) and a RatioLC50 (Bemisia tabaci [3]) of 0.9.
Compound `CC1(C)C(C=C(Cl)Cl)C1C(=O)OC(C#N)c1cccc(Oc2ccccc2)c1` (stereo not drawn) [ALPHA-CYPERMETHRIN] has an LC50 (Bemisia tabaci [1]) of 337 µg/mL (≈ 809 µM), an LC50 (Bemisia tabaci [2]) of 482 µg/mL (≈ 1160 µM) and a RatioLC50 (Bemisia tabaci [3]) of 1.4.
For `O=[N+]([O-])/N=C1\NCCN1Cc1ccc(Cl)nc1` [IMIDACLOPRID], the LC50 (Bemisia tabaci [1]) was 7 µg/mL (≈ 27.4 µM), the LC50 (Bemisia tabaci [2]) was greater than 3000 µg/mL and the RatioLC50 (Bemisia tabaci [3]) was greater than 428.6.
`COP(=O)(OC)OC=C(Cl)Cl` [DICHLORVOS] gave an LC50 (Bemisia tabaci [1]) of 182 µg/mL (≈ 825 µM), an LC50 (Bemisia tabaci [2]) of 224 µg/mL (≈ 1010 µM) and a RatioLC50 (Bemisia tabaci [3]) of 1.2.
In the case of `CCC/C=C1\OC(=O)c2ccccc21` [Z-butylidenephthalide], the LC50 (Bemisia tabaci [1]) is reported as 254 µg/mL (≈ 1350 µM), the LC50 (Bemisia tabaci [2]) is reported as 586 µg/mL (≈ 3110 µM) and the RatioLC50 (Bemisia tabaci [3]) is reported as 2.3.
With `CN1COCN(Cc2cnc(Cl)s2)/C1=N\[N+](=O)[O-]` [THIAMETHOXAM] the LC50 (Bemisia tabaci [1]) was 1.7 µg/mL (≈ 5.83 µM), the LC50 (Bemisia tabaci [2]) was greater than 3000 µg/mL and the RatioLC50 (Bemisia tabaci [3]) was greater than 1764.7.
